Experimental data as given in patent publication US20070128217A1 (priority 2003, published 2007).

Tests used:
[1] = test system: control sera (pooled serum of ten healthy LUMC hospital workers; commercial negative donor pooled serum from the Dutch bloodbank); assay type: binding, human; parameters: Binding of Control serum LUMC to linear peptides / Binding of Control serum Blood-bank to linear peptides / Binding of Control serum LUMC to looped peptides / Binding of Control Serum Blood-Bank to Looped peptides / Binding of Control serum LUMC to linear peptides of the protein M of SARS-CoV Urbani / Binding of Control serum Blood-bank to linear peptides of the protein M of SARS-CoV Urbani / Binding of Control serum LUMC to looped peptides of the protein M of SARS-CoV Urbani / Binding of Control Serum Blood-Bank to Looped peptides of the protein M of SARS-CoV Urbani: unit not given here
[2] = test system: rabbit serum obtained by immunizing a rabbit with the SARS-CoV strain Frankfurt 1; assay type: binding; parameters: Binding of a rabbit serum to linear peptides / Binding of a rabbit serum to looped peptides / Rabbit serum linear peptides / Rabbit serum looped peptides / Binding of a rabbit serum to linear peptides of protein N of SARS-CoV Urbani (Rabbit serum linear peptides) / Binding of a rabbit serum to looped/cyclic peptides of protein N of SARS-CoV Urbani (Rabbit serum looped peptides): unit not given here

Row | Sequence | Binding of Control Serum Blood-Bank to Looped peptides of the protein X3 of SARS-CoV Urbani [1] | Binding of Control serum Blood-bank to linear peptides of the protein X3 of SARS-CoV Urbani [1] | Binding of Control serum LUMC to linear peptides of the protein X3 of SARS-CoV Urbani [1] | Binding of Control serum LUMC to looped peptides of the protein X3 of SARS-CoV Urbani [1] | Rabbit serum linear peptides [2] | Rabbit serum looped peptides [2] | Binding of Control Serum Blood-Bank to Looped peptides of the protein M of SARS-CoV Urbani [1] | Binding of Control serum Blood-bank to linear peptides of the protein M of SARS-CoV Urbani [1] | Binding of Control serum LUMC to linear peptides of the protein M of SARS-CoV Urbani [1] | Binding of Control serum LUMC to looped peptides of the protein M of SARS-CoV Urbani [1] | Binding of Control Serum Blood-Bank to Looped peptides [1] | Binding of Control serum Blood-bank to linear peptides [1] | Binding of Control serum LUMC to linear peptides [1] | Binding of Control serum LUMC to looped peptides [1] | Binding of a rabbit serum to linear peptides [2] | Binding of a rabbit serum to looped peptides [2] | Recognition of the peptide by the rabbit serum [2]
1 | AEILIIIMRTFRIAI | 0.7 | 0.7 | 0.4 | 0.8 | 0.3 | 0.0 | – | – | – | – | – | – | – | – | – | – | –
2 | AGHPLGRCDIKDLPK | – | – | – | – | 0.1 | 0.1 | 0.9 | 1.1 | 0.8 | 0.7 | – | – | – | – | – | – | –
3 | ANYFVCWHTHNYDYC | – | – | – | – | – | – | – | – | – | – | 0.5 | 0.7 | 0.7 | 0.6 | 0.1 | 0.5 | –
4 | AQPVKIDNASPASTV | – | – | – | – | – | – | – | – | – | – | 1.0 | 0.7 | 0.6 | 1.0 | 0.1 | 0.5 | –
5 | ATFFIFNKLVKDPPN | – | – | – | – | – | – | – | – | – | – | 0.8 | 0.5 | 0.5 | 0.8 | 0.1 | 0.6 | –
6 | CAYCCNIVNVSLVKP | – | – | – | – | – | – | – | – | – | – | 0.9 | 1.1 | 0.7 | 0.7 | 0.6 | 0.2 | –
7 | CCNIVNVSLVKPTVY | – | – | – | – | – | – | – | – | – | – | 0.4 | 0.7 | 0.5 | 0.5 | 0.6 | 0.0 | –
8 | CNIVNVSLVKPTVYV | – | – | – | – | – | – | – | – | – | – | 0.6 | 0.7 | 0.8 | 0.8 | 0.1 | 0.5 | –
9 | CQDPAGGALIARCWY | – | – | – | – | 0.5 | 0.6 | – | – | – | – | 0.9 | 0.7 | 0.3 | 0.7 | – | – | –
10 | CWHTHNYDYCIPYNS | – | – | – | – | – | – | – | – | – | – | 0.6 | 0.6 | 0.7 | 0.6 | 0.1 | 0.7 | –
11 | DGSSGVANPAMDPIY | – | – | – | – | – | – | – | – | – | – | 0.5 | 0.9 | 0.8 | 0.4 | 0.1 | 0.6 | –
12 | DYQIGGYSEDRHSGV | – | – | – | – | – | – | – | – | – | – | 0.5 | 0.6 | 0.5 | 0.7 | 0.1 | 0.5 | –
13 | EDRHSGVKDYVVVHG | – | – | – | – | – | – | – | – | – | – | 1.1 | 0.9 | 0.9 | 0.7 | 0.1 | 0.3 | –
14 | EDYQIGGYSEDRHSG | – | – | – | – | – | – | – | – | – | – | 0.4 | 0.4 | 0.4 | 0.5 | 0.1 | 0.6 | –
15 | FFTLGSITAQPVKID | – | – | – | – | – | – | – | – | – | – | 0.2 | 0.5 | 0.5 | 0.3 | 1.1 | 0.0 | –
16 | FHPLADNKFALTCTS | – | – | – | – | 0.4 | 0.2 | – | – | – | – | 0.8 | 0.8 | 0.8 | 0.8 | – | – | –

Row | Sequence | Binding of Control Serum Blood-Bank to Looped peptides of the protein X3 of SARS-CoV Urbani [1] | Binding of Control serum Blood-bank to linear peptides of the protein X3 of SARS-CoV Urbani [1] | Binding of Control serum LUMC to linear peptides of the protein X3 of SARS-CoV Urbani [1] | Binding of Control serum LUMC to looped peptides of the protein X3 of SARS-CoV Urbani [1] | Rabbit serum linear peptides [2] | Rabbit serum looped peptides [2] | Binding of Control Serum Blood-Bank to Looped peptides of the protein M of SARS-CoV Urbani [1] | Binding of Control serum Blood-bank to linear peptides of the protein M of SARS-CoV Urbani [1] | Binding of Control serum LUMC to linear peptides of the protein M of SARS-CoV Urbani [1] | Binding of Control serum LUMC to looped peptides of the protein M of SARS-CoV Urbani [1] | Binding of Control Serum Blood-Bank to Looped peptides [1] | Binding of Control serum Blood-bank to linear peptides [1] | Binding of Control serum LUMC to linear peptides [1] | Binding of Control serum LUMC to looped peptides [1] | Binding of a rabbit serum to linear peptides [2] | Binding of a rabbit serum to looped peptides [2] | Recognition of the peptide by the rabbit serum [2]
17 | FNKLVKDPPNVQIHT | – | – | – | – | – | – | – | – | – | – | 0.8 | 0.8 | 0.9 | 0.7 | 0.1 | 0.7 | –
18 | GDGISTPKLKEDYQI | – | – | – | – | – | – | – | – | – | – | 0.4 | 0.6 | 0.5 | 0.4 | 0.1 | 0.5 | –
19 | GGIAIAMACIVGLMW | – | – | – | – | 0.2 | 0.3 | 0.8 | 0.8 | 0.8 | 0.9 | – | – | – | – | – | – | –
20 | GRCDIKDLPKEITVA | – | – | – | – | 0.0 | 0.1 | 1.0 | 0.5 | 0.1 | 0.9 | – | – | – | – | – | – | –
21 | GVANPAMDPIYDEPT | – | – | – | – | – | – | – | – | – | – | 0.5 | 0.4 | 0.3 | 0.6 | 0.1 | 0.6 | –
22 | GYSEDRHSGVKDYVV | – | – | – | – | – | – | – | – | – | – | 0.6 | 0.8 | 0.8 | 0.6 | 0.1 | 0.3 | –
23 | HPLGRCDIKDLPKEI | – | – | – | – | 0.2 | 1.1 | 1.0 | 1.0 | 0.7 | 0.7 | – | – | – | – | – | – | –
24 | HQNSKKTTKLVVILR | – | – | – | – | – | – | – | – | – | – | 0.6 | 0.5 | 0.8 | 0.6 | – | – | recognized
25 | HQTAAFRDVLVVLNK | – | – | – | – | 0.4 | 0.8 | – | – | – | – | 0.8 | 0.5 | 0.9 | 0.6 | – | – | –
26 | HTHNYDYCIPYNSVT | – | – | – | – | – | – | – | – | – | – | 0.6 | 0.6 | 0.7 | 0.6 | 0.1 | 0.6 | –
27 | HYQECVRGTTVLLKE | – | – | – | – | 0.5 | 0.5 | – | – | – | – | 0.9 | 0.8 | 0.7 | 1.0 | – | – | –
28 | IAIAMACIVGLMWLS | – | – | – | – | 0.1 | 0.3 | 0.8 | 0.5 | 0.6 | 0.7 | – | – | – | – | – | – | –
29 | IDNASPASTVHATAT | – | – | – | – | – | – | – | – | – | – | 0.7 | 0.8 | 0.7 | 0.6 | 0.5 | 0.3 | –
30 | IFNKLVKDPPNVQIH | – | – | – | – | – | – | – | – | – | – | 0.6 | 1.1 | 1.0 | 0.6 | 0.1 | 0.6 | –
31 | IGTQVLKTMSLYMAI | – | – | – | – | – | – | – | – | – | – | 0.9 | 0.8 | 0.5 | 1.0 | 0.1 | 0.4 | –
